These results are taken from patent publication US12310946B2, “Pharmaceutical composition for oral administration of edaravone and method of administering same” (MITSUBISHI TANABE PHARMA CORPORATION, priority 2020, dated 2025).

Data set [1] is described as follows: Adsorption of edaravone to catheter in vitro (recovery after wash-in). The format is physicochemical. Conditions: regardless of the material of the catheter. The protocol:
In administration using a catheter, catheters of various materials are used in medical facilities. Thus, whether administration is feasible with a catheter of any material was investigated by evaluating adsorption properties of catheters. That is, the edaravone oral formulation (#3) was passed through a catheter, and then the percentage of edaravone collected by washing in with water was evaluated.
Specifically, the edaravone oral formulation was loaded into a syringe for catheter administration to give an edaravone amount of 105 mg, and the edaravone oral formulation was passed from the syringe to each of the catheters. Water at a predetermined temperature was then injected into the catheter to wash in the edaravone oral formulation. The edaravone oral formulation that passed through the catheter and the wash-in liquid were collected and mixed, and an amount of edaravone contained in the mixed liquid was measured. The edaravone oral formulation was washed in under any of the following conditions: with 10 ml of water three times, with 30 ml of water at 25° C. or 40° C. once, or with 50 mL of water at 25° C. or 40° C. once. Three measurements were made for each catheter, and the mean and SD of recovery % were calculated.

A short description of data set [2]: Clinical study #5: PK of edaravone oral formulation (formula #3) in ALS patients, oral, fasted. The settings on record: for difference in the AUC between the patient group and the reference group / difference in the Cmax between the patient group and the reference group: ALS patients oral vs healthy oral; for Cmax: po, 105 mg. The format is in vivo, human. The protocol:
To evaluate the pharmacokinetics of edaravone in ALS patients, a clinical study #5 shown below was conducted in ALS patients who can live daily life independently (the patient group).
The edaravone oral formulation was administered orally to the patient group in fasted conditions after a lapse of 10 hours or longer from consumption of a meal. In the patient group, ALS patients who had been already administered with an edaravone intravenous infusion formulation were orally administered with the edaravone oral formulation after a lapse of 48 hours or longer from the time of completion of the previous administration of the intravenous infusion formulation. The same edaravone oral formulation as the formula #3 in Table 1 above was used. Then, blood samples were each collected before the administration, and 5 minutes, 15 minutes, 30 minutes, 45 minutes, 1 hour, 1.5 hours, 2 hours, 4 hours, 6 hours, 8 hours, 10 hours, 12 hours, and 24 hours after the administration, and the concentrations of unchanged edaravone in plasma were measured.
The resulting PK parameters were corrected for body weight of each subject adjusted to 70 kg by a proportional calculation for each of the patient group and the reference group. In addition, the results of the PK parameters after correction of the patient group are shown as box-whisker plots of #9 (the reference group), and individual plots of #5 (the patient group) and #9 (the reference group) in FIG. 3. In FIG. 3, X represents a mean value. […] Thus, the difference in the Cmax and the difference in the AUC before weight correction between the patient group and the reference group seen in Table 9 below are considered due to the difference in body weight between the patient group and the reference group, and the difference in the Cmax and the difference in the AUC after weight correction between the patient group and the reference group observed in FIG. 3 are each considered to be within the range of error.

Data set [3] in a line: Clinical study #2: PK of edaravone oral formulation (formula #2), fasted vs 4 h after high-fat meal. In kind it is in vivo. The settings on record: male, human, plasma, 100 mg, 100 mg oral, mean (n = 9). On the procedure: Effects of meal consumption before administration of the edaravone oral formulation on the pharmacokinetics of edaravone were evaluated. Specifically, clinical studies #1, #2, and #3 described below were conducted on separate days in Japanese healthy adult male subjects. In each of clinical studies #1, #2, and #3, one dose each of edaravone oral formulations (edaravone suspensions) of formulas #1, #2, and #3 shown in Table 1 below were used respectively and administered orally once during the study period. For each clinical study, a reference study was conducted (reference example), in which the edaravone oral formulation was administered in fasted conditions as described below, and in each clinical study and the corresponding reference study, the edaravone oral formulation was each administered to the same subjects.
For the high-fat meal, a meal with total calories per meal of 800 to 1000 kilocalories and calorie intake from lipid of 50% was used. For the standard meal, a meal with total calories per meal of 400 to 500 kilocalories and calorie intake from lipid of 25% was used. For the light meal, a liquid-type nutritional supplement with total calories per meal of 250 kilocalories (enteral nutritional supplement: Ensure Liquid (trade name)) was used.
The edaravone oral formulation (formula #2) was administered orally to the subjects 4 hours after high-fat meal consumption. Blood samples were each collected before the administration, and 5 minutes, 15 minutes, 30 minutes, 1 hour, 1.5 hours, 2 hours, 4 hours, 6 hours, 8 hours, 12 hours, 24 hours, 36 hours, and 48 hours after the administration, and the concentrations of unchanged edaravone in plasma were measured. On the other hand, as a reference example, the edaravone oral formulation was administered orally to the same subjects in fasted conditions, blood samples were collected, and the concentrations of unchanged edaravone in plasma were measured in the same manner. For the administration in fasted conditions, the edaravone oral formulation was administered orally after a lapse of 10 hours or longer from the previous meal consumption. None of the subjects consumed a next meal until the blood sample collection 4 hours after the administration was completed.

Setting [4] is: after weight correction (70 kg).
[5] abbreviates: human, plasma, 105 mg oral, fasted, ALS patients (n = 9), mean, before weight correction.
Setting [6] is: formula #2, 4 h after high-fat meal.

`CC1=NN(c2ccccc2)C(=O)C1` [Edaravone, 3-methyl-1-phenyl-2-pyrazolin-5-one]: in data set [1], the “adsorption of edaravone on the catheters” value was “No adsorption”. Also, the “difference in the AUC between the patient group and the reference group” value in data set [2] (setting [4]) is 5.8%; in data set [2] (before weight correction), 1.5%. The figures for the “difference in the Cmax between the patient group and the reference group” value in data set [2] (setting [4]) and in data set [2] (before weight correction) were 9.8% and 15%, respectively. The Cmax (as a rule, the highest concentration seen after dosing) in data set [2] (human, plasma, 105 mg oral, ALS patients, corrected to 70 kg, read-out: Cmax after weight correction, mean value±standard error) is 1610 ± 231 ng/mL; in data set [2] (human, plasma, 105 mg oral, fasted, ALS patients (n = 9), mean, before weight correction, read-out: Cmax), 1900 ng/mL; in data set [3] (setting [6]), 1010 ng/mL; in data set [3] (formula #2, fasted), 1810 ng/mL. Moreover, the AUC – broadly, concentration integrated over time – in data set [2] (human, plasma, 105 mg oral, ALS patients, corrected to 70 kg, read-out: AUC after weight correction, mean value±standard error) was 1460 ± 166 ng·h/mL. Moreover, the AUC(0-inf) – broadly, total exposure, with the tail of the curve extrapolated – in data set [2] (setting [5]) is 1740 ng·h/mL; in data set [3] (setting [6]) it was 1250 ng·h/mL; in data set [3] (formula #2, fasted) it was 1650 ng·h/mL. The Tmax (as a rule, the time at which the peak concentration occurs) was 18.6 min in data set [2] (setting [5]); 28.2 min in data set [3] (setting [6]); 21.6 min in data set [3] (formula #2, fasted). In addition, the half-life (as a rule, the time in which the quantity being followed falls by half) in data set [3] (setting [6]) is 460 min; in data set [3] (formula #2, fasted) it was 560 min.
